Source: BigSolDB 2.1

Nc1c(Cl)cc([N+](=O)[O-])cc1Cl
solubility (mole fraction)
Settings | 278.15 K | 283.15 K | 288.15 K | 293.15 K | 298.15 K | 303.15 K | 308.15 K | 313.15 K | 318.15 K | 323.15 K
in 1,4-dioxane | – | – | – | 0.0251 | 0.0292 | 0.0337 | 0.0389 | 0.0447 | 0.0513 | 0.0598
in NMP | 0.135 | 0.141 | 0.149 | 0.159 | 0.169 | 0.179 | 0.189 | 0.199 | 0.211 | 0.227
in acetonitrile | 0.00152 | 0.00176 | 0.00211 | 0.00249 | 0.00293 | 0.00352 | 0.00411 | 0.00487 | 0.00577 | 0.00665
in cyclohexane | 0.000119 | 0.000147 | 0.000185 | 0.000236 | 0.000301 | 0.000389 | 0.000501 | 0.000617 | 0.00074 | 0.000906
in ethanol | 0.000879 | 0.00102 | 0.00123 | 0.00149 | 0.00183 | 0.00222 | 0.00268 | 0.00325 | 0.00384 | 0.00455
in ethyl acetate | 0.0085 | 0.00938 | 0.0109 | 0.0126 | 0.0153 | 0.0177 | 0.0208 | 0.025 | 0.0291 | 0.0336
in ethylene glycol | 0.000815 | 0.000969 | 0.00117 | 0.00139 | 0.00167 | 0.00195 | 0.00236 | 0.00281 | 0.00338 | 0.00412
in isopropanol | – | 0.00093 | 0.00111 | 0.00133 | 0.00162 | 0.00195 | 0.00234 | 0.00281 | 0.00338 | 0.00413
in methanol | 0.000705 | 0.000814 | 0.000987 | 0.00121 | 0.0015 | 0.00182 | 0.00224 | 0.00267 | 0.00314 | 0.00377
in n-butanol | 0.00121 | 0.00148 | 0.00172 | 0.00216 | 0.0026 | 0.00308 | 0.00378 | 0.00446 | 0.00543 | 0.00638
in n-propanol | 0.00102 | 0.00123 | 0.00146 | 0.00176 | 0.00216 | 0.00258 | 0.00307 | 0.00364 | 0.00441 | 0.00546
in water | 1.88e-06 | 2.53e-06 | 3.43e-06 | 4.76e-06 | 6.43e-06 | 8.31e-06 | 1.06e-05 | 1.37e-05 | 1.72e-05 | 2.18e-05
